Measurements from article PMC5826112, “Intrapulmonary Pharmacokinetics of Relebactam, a Novel β-Lactamase Inhibitor, Dosed in Combination with Imipenem-Cilastatin in Healthy Subjects” (Antimicrobial Agents and Chemotherapy, 2018).
Entries after “also recorded” stand apart in the source; their conditions may differ. Where two headings read alike, the source gives them in different places. Each block holds one compound with its values, some of them ahead of it.

How the values were obtained:
[1] = design: method as in PMID 26349830; settings: healthy adults, meropenem-RPX7009; cited from earlier work
[2] = design: method as in PMID 7831630; settings: orally administered amoxicillin-clavulanate; cited from earlier work
[3] = healthy adults, ceftolozane-tazobactam; cited from earlier work
[4] = design: method as in PMID 17039351; settings: multiple-dose, adult patients with ventilator-associated pneumonia; cited from earlier work
[5] = Intrapulmonary (ELF, AC) and plasma pharmacokinetics after multiple-dose IV relebactam with imipenem-cilastatin, bronchoscopy/BAL, noncompartmental analysis; assay type: in vivo, human (healthy subjects); settings: for t1/2 (terminal half-life) / half-life / AUC(0-inf) / Cmax / Tmax / AUC(0-t): mean profile; for half-life: read-out: t1/2 (terminal half-life) (converted); for AUC(0-inf): noncompartmental analysis; for AUC(0-t): read-out: AUC0–3; for concentrations in AC (alveolar cells): result in words
Method: Dosing and administration of imipenem-cilastatin were carried out in a manner consistent with the recommended labeled posology. BAL fluid specimens were obtained during bronchoscopy for the determination of the relebactam and imipenem concentrations in the ELF and AC. Four aliquots of normal saline (50 ml each) were sequentially instilled and aspirated after each instillation. The first aspirate was discarded, and the remaining aspirates were pooled and used to obtain urea and drug level measurements. Aliquots were obtained for cell count/differential, and the remainder of the pooled aspirates was centrifuged. The liquid aspirate and cell pellet were separated and stored at −70°C. The supernatant was sent for urea and drug level measurements. Blood samples were collected prior to the first and fifth doses of study drug for the determination of relebactam and imipenem plasma concentrations. Blood samples were also collected during the bronchoscopy/BAL procedure for the determination of relebactam, imipenem, and urea concentrations. Relebactam and imipenem levels in plasma, pulmonary ELF, and AC were measured simultaneously via acetonitrile protein precipitation and hydrophilic interaction liquid chromatography (HILIC) with detection via liquid chromatography-tandem mass spectrometry (LC-MS/MS). The system consisted of a Waters Acquity ultraperformance liquid chromatograph (Waters Corp., Milford, MA) and an API 4000 or 5000 triple-quadrupole tandem mass spectrometer (Sciex, Framingham, MA) equipped with a turbo-ion spray interface and operated in the positive ionization mode. The multiple reaction monitoring (MRM) transitions monitored were m/z 349 → 269 for relebactam, m/z 300 → 98 for imipenem, and m/z 354 → 274 and m/z 307 → 98 for their respective internal standards. […] The ELF volumes recovered by BAL were determined by using urea as an endogenous marker to provide a dilution ratio by measurement of urea concentrations in the BAL fluid and serum ([33]). […] The mean value for each time point was used to conduct the noncompartmental analysis using Phoenix (version 6.3) software (Pharsight Corporation, Mountain View, CA) and to calculate the values of the PK parameters on the basis of the mean profile in each matrix.

[6] = no reference given; cited from earlier work
[7] = design: method as in PMID 21300830; settings: patients with ventilator-associated pneumonia; cited from earlier work
[8] = critically ill patients, multiple doses of piperacillin-tazobactam; cited from earlier work
[9] = both sexes, human, intravenous, ELF, same regimen
[10] = both sexes, human, intravenous, plasma, same regimen

SMILES: O=C(O)C[C@@H]1CC[C@H](NC(=O)Cc2cccs2)B(O)O1 [RPX7009]
- mean penetration ratio based on AUC [1]: 53%

SMILES: CC1(C)S[C@@H]2[C@H](NC(=O)[C@H](N)c3ccc(O)cc3)C(=O)N2[C@H]1C(=O)O [amoxicillin]
- concentrations in ELF relative to those in plasma [2]: less than 20%

SMILES: Cn1c(N)c(NC(=O)NCCN)c[n+]1CC1=C(C(=O)O)N2C(=O)[C@@H](NC(=O)/C(=N\OC(C)(C)C(=O)[O-])c3nsc(N)n3)[C@H]2SC1 [ceftolozane]
- ELF/plasma AUC ratio [3]: 48%

SMILES: O=C(O)[C@H]1/C(=C/CO)O[C@@H]2CC(=O)N21 [clavulanate]
- concentrations in ELF relative to those in plasma [2]: less than 20%

SMILES: C[C@@H](O)[C@H]1C(=O)N2C(C(=O)O)=C(S[C@@H]3CN[C@H](C(=O)Nc4cccc(C(=O)O)c4)C3)[C@H](C)[C@H]12 [ertapenem]
- ratios of ELF concentrations to total plasma concentrations, median [4]: 0.32

- t1/2 (terminal half-life) ([5]; ELF, same regimen): 61.8 min
- half-life ([5]; both sexes, human, ELF, intravenous, ELF, same regimen): 60 min
- concentration at 0.5 h ([5]; both sexes, human, ELF, intravenous, same regimen, 0.5 h after last dose, n=4, read-out: concn in ELF, GM): 32.1 µM
- concentration at 1 h ([5]; both sexes, human, ELF, intravenous, same regimen, 1 h after last dose, n=4, read-out: concn in ELF, GM): 20.3 µM
- concentration at 1.5 h ([5]; both sexes, human, ELF, intravenous, same regimen, 1.5 h after last dose, n=4, read-out: concn in ELF, GM): 16.5 µM
- concentration at 3 h ([5]; both sexes, human, ELF, intravenous, same regimen, 3 h after last dose, n=4, read-out: concn in ELF, GM): 5.99 µM
- Kp ([5]; both sexes, human, ELF/plasma, intravenous, calculated as 100 · ELF AUC0–∞/plasma AUC0–∞/0.8, adjusted for protein binding (80% unbound in plasma, 100% free in ELF), read-out: Adjusted ELF/plasma AUC0–∞ ratio): 0.55
- Kp ([5]; both sexes, human, ELF/plasma, intravenous, calculated as 100 · ELF AUC0–∞/plasma AUC0–∞, mean profiles, read-out: ELF/plasma AUC0–∞ ratio): 0.442
- Kp ([5]; both sexes, human, ELF/plasma, intravenous, same regimen, 0.5 to 3 h after last dose, read-out: GMRs for ELF/plasma concentrations, range across time points): 0.32 to 0.55
- Kp at 1 h ([5]; both sexes, human, ELF/plasma, intravenous, same regimen, 1.0 h after last dose, n=4, read-out: ELF/plasma concn GMR (90% CI)): 0.36
- Kp at 1.5 h ([5]; both sexes, human, ELF/plasma, intravenous, same regimen, 1.5 h after last dose, n=4, read-out: ELF/plasma concn GMR (90% CI)): 0.55
- Kp at 3 h ([5]; both sexes, human, ELF/plasma, intravenous, same regimen, 3.0 h after last dose, n=4, read-out: ELF/plasma concn GMR (90% CI)): 0.5
- Kp at 0.5 h ([5]; both sexes, human, ELF/plasma, iv, healthy subjects, relebactam 250 mg with imipenem-cilastatin 500 mg IV every 6 h, 5 doses, 0.5 h after last dose, n=4, read-out: ELF/plasma concn GMR (90% CI)): 0.32
- AUC(0-inf) [5, 9]: 57.4 µM·h
- Cmax [5, 9]: 32.6 µM
- Tmax [5, 9]: 30 min
- AUC(0-t) [5, 9]: 48.4 µM·h
- AUC(0-inf) [5, 10]: 130 µM·h
- Cmax [5, 10]: 99.6 µM
- Tmax [5, 10]: 30 min
- AUC(0-t) [5, 10]: 114 µM·h
- half-life ([5]; both sexes, human, plasma, intravenous, plasma, same regimen): 60 min
- Adjusted ELF/plasma AUC0–∞ ratio ([5]; calculated as 100 · ELF AUC0–∞/plasma AUC0–∞/0.8, adjusted for protein binding (80% unbound in plasma, 100% free in ELF)): 55.2%
- t1/2 (terminal half-life) ([5]; plasma, same regimen): 57 min
- concentrations in AC (alveolar cells) ([5]; same regimen): below the limit of quantitation
SMILES: C[C@@H](O)[C@H]1C(=O)N2C(C(=O)O)=C(SCCN=CN)C[C@H]12 [imipenem]
- concentrations in AC (alveolar cells) ([5]; same regimen, listed as Imipenem): undetectable in the majority of patients; also recorded: not detected
- unbound in plasma (free fraction) [6]: 80%

SMILES: C[C@@H](O)[C@H]1C(=O)N2C(C(=O)O)=C(S[C@@H]3CN[C@H](C(=O)N(C)C)C3)[C@H](C)[C@H]12 [meropenem]
- ELF/plasma concentration ratio estimated by population modeling [7]: 30%
- mean penetration ratio based on AUC [1]: 63%

SMILES: C[C@]1(Cn2ccnn2)[C@H](C(=O)O)N2C(=O)C[C@H]2S1(=O)=O [tazobactam]
- mean concentrations in ELF relative to total concentrations in plasma [8]: ~91%
- ELF/plasma AUC ratio [3]: 44%
